Measurements as given in patent publication US10711000B2 (Fronthera U.S. Pharmaceuticals LLC, priority 2018, dated 2020).

What was measured:
[1] = Pharmacokinetics in beagle dogs; assay type: in vivo; conditions: male, dog, plasma, iv, I.V. (1 mg/kg)
[2] = Pharmacokinetics after a single oral dose in SD rats; assay type: in vivo; conditions: Sprague-Dawley, rat, plasma, single oral dose in 0.5% methylcellulose; for half-life: read-out: T½ (converted)
From the text: (§1) The pharmacokinetics and pharmacodynamics of test compounds after a single oral dose were investigated in SD rats, Beagle dog and Cynomolgus monkey. SD Rats (200-250 g) were purchased from Beijing Vital River Laboratory Animal Technology Co., Ltd. Male Beagle Dog, 6-9 kg, were purchased from Beijing Mashall. Male Cynomolgus monkeys, 3-5 kg, were purchased from Suzhou Xishan Zhongke Drugs Research and Development Co., Ltd. Following arrival, the animals were acclimated for 7 days in individual cages maintained at ambient temperature, 34 to 68% relative humidity, and 12-h light/dark cycles. Just prior to dose administration the rats were fasted overnight with free access to water. Animals were given 10 mL/kg of formulated compound in 0.5% methylcellulose (MC) by oral gavage, and the animals were fed four hours after dosing. The animals were manually restrained at the designated time points (pre-dose, 0.5, 1, 3, 6, 9, 12, and 24 h post-dose) to collect blood. Approximately 120 μL of blood was collected via orbital sinus into K2EDTA tubes. The blood samples were centrifuged at 5000 rpm for 10 min at 4° C. to obtain plasma samples.
(§2) To determine the compound concentration in the plasma samples, a 10× calibration standard of compound were prepared by serial dilution in DMSO: 20000, 10000, 5000, 2000, 1000, 500, 200, 100, 50, 20, and 10 ng/mL. 3 μL of calibration standard solution was added into 27.0 μL of blank plasma in 1.5-mL microcentrifuge tubes to generate 1× calibration standards. The 30.0 μL of standards or study plasma was mixed with 200 μL of acetonitrile (containing 5 ng/mL verapamil for internal control) in a 1.5-mL microcentrifuge tube. After vertexing for 1 minute and centrifuging at 10000 rpm for 10 min, 180 μL of supernatant was transferred into a 96-well plate and the compound concentration in the plasma was quantitated using LC/MS/MS together with standards. Briefly, 1 μL of the solutions were injected for LC-MS/MS analysis using an Agilent Zorbax C18 column (50×2.1 mm, 3.5 μm) with mobile phase A [5 mM NH4Ac (0.1% FA)] and phase B [Methanol (0.1% FA)]. Mass spectrometer parameters optimization for compound was performed by infusing standard diluted at 1 μg/mL in water/methanol (1/1, v/v) directly in the ionization source at a flow of 10 μL/min. Quantitative data were acquired in multiple reaction monitoring (MRM) positive APCI mode.

CYP 2C19 = target: T1, CYP 2C19 (Homo sapiens, UniProt P33261); experiment: CYP inhibition in human liver microsome; assay type: in vitro ADME; conditions: human liver microsomes, substrate s-mephenytoin (30 μM); compounds diluted 1:3 starting at 50 μM; read-out: IC50 in CYP isozyme 2C19
T1 construct: from tissue; host or cells: human liver microsomes
Protocol: Test compounds were evaluated for CYP inhibition using human liver microsomes (HLM). Test compounds were 1:3 serially diluted starting at 50 μM to generate 7 different concentrations. After incubation of diluted test compounds with HLM, a substrate cocktail composed of phenacetin (10 μM), amodiaquine (2 μM), diclofenac (5 μM), s-mephenytoin (30 μM), dextromethorphan (5 μM), and midazolam (2 μM) was added to check the remaining CYP activity for CYP 1A2, 2C8, 2C9, 2C19, 2D6 and 3A4. The CYP activity was measured by detecting the peak area of individual metabolites of know CYP substrates using LC/MS/MS. A percentage of inhibition of CYP was calculated at each final concentration of test compound, through which an IC50 was fitted to represent the inhibition potential.

Autotaxin = target: T2, Autotaxin (Rattus norvegicus, UniProt Q64610); experiment: Pharmacodynamics: LPA 18:2 inhibition in plasma of SD rats after oral dose; conditions: single oral dose, LPA18:2 inhibition vs plasma concentration of compound, read-out: In vivo rat IC50 (LPA 18:2) (converted)
T2 construct: from tissue; host or cells: SD rats in vivo; plasma sampled after a single oral dose
From the text: as §1
Autotaxin is a secreted phosphodiesterase that converts lysophosphatidylcholine (LPC) into lysophosphatidic acid (LPA), and LPA 18:2 formation was used to evaluate the efficacy of autotaxin inhibitors. Therefore, the LPA 18:2 formation in response to drug administration was analyzed in each time point to assess the pharmacodynamics of test compounds. To determine the LPA18:2 concentration in study plasma, a 10× calibration standard of LPA 18:2 were prepared by serial dilution in butyl alcohol: 20000, 10000, 5000, 2000, 1000, 500, 200, 100, 50, 20, and 10 ng/mL. 3 μL of calibration standard solution was added into 27.0 μL of blank plasma in 1.5-mL microcentrifuge tubes to generate 1× calibration standards. The 30.0 μL of standards or study plasma was added into 1.5-mL microcentrifuge tubes. 200 μL of butyl alcohol (containing 25.0 ng/mL LPA17:0 for internal control) was added into each 1.5-mL microcentrifuge tube containing study plasma or calibration standards. After vortexing for 1 minute and centrifuging at 10000 rpm for 10 min, 180 μL of supernatant was transferred into a 96-well plate and the LPA18:2 concentration in the plasma was quantitated using LC/MS/MS together with standards. Briefly, 8 μL of the solutions were injected for LC-MS/MS analysis using an ACQUITY UPLC BEH C18 column (2.1×50 mm, 1.7 μm) with mobile phase A [20 mM NH4OAC in water (0.1% FA)] and phase B [5 mM NH4OAC in water/0.2% FA in ACN=5:95]. Mass spectrometer parameters optimization for LPA18:2 were performed by infusing standard diluted at 1 μg/mL in butyl Alcohol directly in the ionization source, at a flow of 10 μL/min. Deprotonated molecular ion at m/z 433.2 ([M−H]−) for LPA18:2, and abundant product ion at m/z 152.8 for LPA18:2 were obtained. Quantitative data were acquired in multiple reaction monitoring (MRM) negative electrospray ionization mode
The percentage of LPA18:2 inhibition was plotted against the corresponding concentration of compound and the IC50 was calculated through non-linear regression fitting.

[3] = Pharmacokinetics in beagle dogs; assay type: in vivo; conditions: male, dog, plasma, po, P.O. (1 mg/kg)
From the text: as §1, §2

[4] = Pharmacokinetics in cynomolgus monkeys; assay type: in vivo; conditions: male, cynomolgus monkey, plasma, po, P.O. (1 mg/kg)
From the text: as §1, §2

T1 sequence (P33261 whole entry): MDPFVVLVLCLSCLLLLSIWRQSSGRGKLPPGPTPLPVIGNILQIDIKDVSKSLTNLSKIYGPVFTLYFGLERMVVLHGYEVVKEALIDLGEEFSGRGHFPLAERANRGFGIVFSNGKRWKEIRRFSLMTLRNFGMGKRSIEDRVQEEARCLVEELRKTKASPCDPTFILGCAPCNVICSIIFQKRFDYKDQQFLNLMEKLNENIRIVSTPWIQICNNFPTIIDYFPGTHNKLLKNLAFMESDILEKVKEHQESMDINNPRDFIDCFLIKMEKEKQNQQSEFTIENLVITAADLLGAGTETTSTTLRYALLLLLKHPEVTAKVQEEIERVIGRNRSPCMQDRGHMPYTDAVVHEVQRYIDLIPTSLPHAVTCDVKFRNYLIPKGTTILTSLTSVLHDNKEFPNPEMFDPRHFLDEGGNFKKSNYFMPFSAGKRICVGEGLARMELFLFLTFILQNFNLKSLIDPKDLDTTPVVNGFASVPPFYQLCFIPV

Row | AUC [1] | C0 [1] | clearance [1] | half-life [1] | AUC [2] | Cmax [2] | half-life [2] | IC50 (CYP 2C19) | IC50 (Autotaxin) | AUC [3] | Cmax [3] | bioavailability [3] | half-life [3] | AUC [4] | Cmax [4] | bioavailability [4] | half-life [4] | Compound
1 | 10700 ± 1810 ng·h/mL | 2290 ± 172 ng/mL | 1.53 ± 0.27 mL/min/kg | 5.06 ± 0.85 h | 2050 ± 884 ng·h/mL | 268 ± 76 ng/mL | 3.29 ± 0.25 h | 45500 nM | 8.64 nM | 4020 ± 549 ng·h/mL | 425 ± 68 ng/mL | 36.1 ± 4.9% | 4.69 ± 0.17 h | 1380 ± 904 ng·h/mL | 239 ± 119 ng/mL | 35.6 ± 22% | 2.49 ± 0.54 h | CCc1nn2cc(F)c(N3CCN(CC(=O)N4CC(O)C4)CC3)cc2c1N(C)c1nc(-c2ccc(F)cc2)c(C#N)s1 [Example 101, 2-[[2-ethyl-6-fluoro-5-[4-[2-(3-hydroxyazetidin-1-yl)-2-oxo-ethyl]piperazin-1-yl]pyrazolo[1,5-a]pyridin-3-yl]-methyl-amino]-4-(4-fluorophenyl)thiazole-5-carbonitrile]
2 | 8650 ± 328 ng·h/mL | 5120 ± 1380 ng/mL | 1.91 ± 0.07 mL/min/kg | 2.11 ± 1.23 h | 1260 ± 209 ng·h/mL | 889 ± 173 ng/mL | 3.15 ± 1.8 h | 40200 nM | 48.3 nM | 5760 ± 672 ng·h/mL | 1130 ± 229 ng/mL | 66.2 ± 7.5% | 3.04 ± 0.77 h | 244 ± 118 ng·h/mL | 72.6 ± 38 ng/mL | 4.51 ± 2.1% | 1.82 ± 0.63 h | CCc1nc2c(C)cc(N3CCN(CC(=O)N4CC(O)C4)CC3)cn2c1N(C)c1nc(-c2ccc(F)cc2)c(C#N)s1 [GLPG1690]
3 | 6480 ± 703 ng·h/mL | 1070 ± 34.4 ng/mL | 1.85 ± 0.28 mL/min/kg | 14.8 ± 0.57 h | 7520 ± 498 ng·h/mL | 732 ± 95 ng/mL | 5.53 ± 0.2 h | 11900 nM | 8.85 nM | 2190 ± 325 ng·h/mL | 192 ± 26 ng/mL | 33.9 ± 5% | 20.4 ± 6.1 h |  |  |  |  | CCc1nn2cc(F)c(N3CC4(CN(C(=O)[C@H]5CCOC5)C4)C3)cc2c1N(C)c1nc(-c2ccc(F)cc2)c(C#N)s1 [Example 102, 2-[[2-ethyl-6-fluoro-5-[2-[(3S)-tetrahydrofuran-3-carbonyl]-2,6-diazaspiro[3.3]heptan-6-yl]pyrazolo[1,5-a]pyridin-3-yl]-methyl-amino]-4-(4-fluorophenyl)thiazole-5-carbonitrile]
4 | 2190 ± 378 ng·h/mL | 786 ± 62 ng/mL | 7.68 ± 1.2 mL/min/kg | 3.35 ± 0.6 h | 2620 ± 1920 ng·h/mL | 477 ± 250 ng/mL | 3.85 ± 1.3 h | > 50000 nM | 12.5 nM | 900 ± 305 ng·h/mL | 165 ± 40 ng/mL | 40.7 ± 14% | 3.99 ± 0.89 h | 153 ± 10 ng·h/mL | 28 ± 3 ng/mL | 2.9 ± 0.19% | 2.63 ± 0.85 h | CCn1nc2ncc(N3CC4(CN(C(=O)C5CCOCC5)C4)C3)cc2c1N(C)c1nc(-c2ccc(F)cc2)c(C#N)s1 [Compound 118, 2-((2-ethyl-5-(6-(tetrahydro-2H-pyran-4-carbonyl)-2,6-diazaspiro[3.3]heptan-2-yl)-2H-pyrazolo[3,4-b]pyridin-3-yl)(methyl)amino)-4-(4-fluorophenyl)thiazole-5-carbonitrile]
